Results on 21 compounds are retold here after patent US11708366B2, “Heteroaryl substituted spiropiperidinyl derivatives and pharmaceutical uses thereof” (Novartis AG, priority 2020, dated 2023).

Broadly, the pIC50 is the IC50 on a negative log10 scale, so that one unit is a factor of ten.

Experiment [1] concerns the target T1, LTC4S (Homo sapiens (Human), UniProt Q16873). Description: Human whole blood HTRF assay (LTC4 release after calcium ionophore A23187). It is filed as cell-based. The note with it: calcium ionophore A23187 stimulation, LTC4 by HTRF.
Experiment [2] has as its target T1, LTC4S. Description: Human LTC4S enzymatic assay (HTRF detection of LTC4-Me). The format is biochemical. The protocol:
A. Human LTC4S Enzymatic Assay:
LTC4 synthase catalyzes the conversion of Leukotriene A4 (LTA4) to Leukotriene C4 (LTC4) in the presence of reduced glutathione (GSH) as a co-substrate. For compound testing, compounds are delivered as 10 mM stock solutions in 90% DMSO in matrix tubes. From this, a 1:3 dilution dose response series is prepared with a starting concentration of 30 μM to 0.1 nM. For the enzymatic assay 97.5 nL of compound/DMSO solution is transferred to each well and 5 μL enzyme solution (assay buffer: 50 mM bis-tris propane pH 7.3, 250 mM NaCl, 10 mM MgCl2, 0.001% MGN3) is added to the wells. […] The enzyme compound mixture is incubated at room temperature for 15 minutes prior to the addition of 5 μL substrate solution. […] A final substrate concentration of 400 μM GSH and 5 μM LTA4-Me is chosen.
The LTA4-Me is obtained commercially in 2% triethylamine/hexane solvent. As this solvent is incompatible with the HTRF assay it has to be exchanged with DMSO according to following procedure: add 50 μL of 100% DMSO to 50 μL LTA4-Me (3 mM) in a 2 mL Eppendorf tube and mix gently by inverting the tube. The triethylamine/hexane is evaporated under a constant argon flux at room temperature. The DMSO-LTA4-Me (3 mM) is aliquoted and stored at −20° C. for not longer than 4 weeks, as it is not stable in DMSO due to its oxidizing properties.
Upon addition of the substrate, the plate is immediately placed on a shaker for 5 min at room temperature. Immediately after the 5 min incubation 5 μL of H2O2 solution is added to all wells to stop the reaction. The plate contents are mixed before the addition of detection reagents. […] For the detection of the product of the enzymatic reaction LTC4-Me, the Cisbio LTC4-HTRF kit is used as the assay is compatible with the detection of LTC4-Me. 5 μL of diluted LTC4-d2 conjugate (according to manufacturer's protocol) are added to all wells of the assay plate and the contents gently mixed and incubated for 5 minutes at room temperature. […] The percent inhibition for each point of an inhibition curve is calculated after data interpolation using the LTC4-Me standard curve, to convert the HTRF signal to the amount of LTC4-Me produced within the LTC4S catalyzed reaction on each plate. The data is analyzed using parametric curve fitting to determine IC50 values of LTC4S inhibitors.
For orientation: TR-FRET usually uses a lanthanide donor and a delayed reading to cut background.

Setting [3] is: human whole blood HTRF IC50, human whole blood diluted 1:3, 4 h incubation.
Where [4] appears, read: human whole blood diluted 1:3, 4 h incubation, read-out: human whole blood HTRF IC50.
Where [5] appears, read: 0.75 nM enzyme, 400 μM GSH, 5 μM LTA4-Me, 15 min pre-incubation, read-out: human LTC4S IC50 (enzymatic assay).

pIC50: −log10 of the molar value.

For the compound `O=C1CCCC2(CCN(c3ccnc(N4CC5(CC5)C4)n3)CC2)N1c1ccc(Cl)c(F)c1` [Example 35a, 9-(2-(5-azaspiro[2.3]hexan-5-yl)pyrimidin-4-yl)-1-(4-chloro-3-fluorophenyl)-1,9-diazaspiro[5.5]undecan-2-one], the pIC50 in experiment [1] (setting [3]) is 7.40; in experiment [2] it was 7.92.
Taken in the same sequence, the figures for `O=C1CCCC2(CCN(c3cn(-c4ccc(F)cc4)nn3)CC2)N1c1ccc(Cl)c(F)c1` [Example 29, 1-(4-chloro-3-fluorophenyl)-9-(1-(4-fluorophenyl)-1H-1,2,3-triazol-4-yl)-1,9-diazaspiro[5.5]undecan-2-one] were 6.74 and 7.24.
`O=C1CCCC2(CCN(c3nsc(N4CCC(F)(F)C4)n3)CC2)N1c1ccc(Cl)c(F)c1` [Example 23, 1-(4-chloro-3-fluorophenyl)-9-(5-(3,3-difluoropyrrolidin-1-yl)-1,2,4-thiadiazol-3-yl)-1,9-diazaspiro[5.5]undecan-2-one]: the values for the negative-log IC50 (pIC50) in experiment [1] (setting [4]) and in experiment [2] (setting [5]) were 7.35 and 7.21, respectively.
Regarding `O=C1CCCC2(CCN(c3ncnc(N4CCCC4)c3F)CC2)N1c1ccc(Cl)c(F)c1` [Example 36, 1-(4-chloro-3-fluorophenyl)-9-(5-fluoro-6-(pyrrolidin-1-yl)pyrimidin-4-yl)-1,9-diazaspiro[5.5]undecan-2-one], the pIC50 in experiment [1] (setting [4]) is 7.36; in experiment [2] (setting [5]), 8.22.
Take `O=C1CCCC2(CCN(c3nsc(N4CC(C(F)(F)F)C4)n3)CC2)N1c1ccc(Cl)c(F)c1` [Example 24, 1-(4-chloro-3-fluorophenyl)-9-(5-(3-(trifluoromethyl)azetidin-1-yl)-1,2,4-thiadiazol-3-yl)-1,9-diazaspiro[5.5]undecan-2-one]: the results for the pIC50 in experiment [1] (setting [4]) and in experiment [2] (setting [5]) were 6.96 and 7.48, respectively.
Turning to `O=C1CCCC2(CCN(c3nnn(-c4ccccc4)n3)CC2)N1c1ccc(Cl)c(F)c1` [Example 22, 1-(4-chloro-3-fluorophenyl)-9-(2-phenyl-2H-tetrazol-5-yl)-1,9-diazaspiro[5.5]undecan-2-one], the pIC50 in experiment [1] (setting [4]) was 6.28; in experiment [2] (setting [5]), 7.96.
For the compound `O=C1CCCC2(CCN(c3nnc(-c4ccccc4)o3)CC2)N1c1ccc(Cl)c(F)c1` [Example 28, 1-(4-chloro-3-fluorophenyl)-9-(5-phenyl-1,3,4-oxadiazol-2-yl)-1,9-diazaspiro[5.5]undecan-2-one], the pIC50 in experiment [1] (setting [4]) was 6.35; in experiment [2] (setting [5]), 6.96.
On to `O=C1CCCC2(CCN(c3ncnc(N4CC(C(F)(F)F)C4)c3F)CC2)N1c1ccc(Cl)c(F)c1` [Example 37, 1-(4-chloro-3-fluorophenyl)-9-(5-fluoro-6-(3-(trifluoromethyl)azetidin-1-yl)pyrimidin-4-yl)-1,9-diazaspiro[5.5]undecan-2-one], for which the pIC50 in experiment [1] (setting [4]) is 6.92; in experiment [2] (setting [5]), 7.92.
Taken in the same sequence, the figures for `O=C1CCCC2(CCN(c3nsc(N4CCCC4)n3)CC2)N1c1ccc(Cl)c(F)c1` [Example 25, 1-(4-chloro-3-fluorophenyl)-9-(5-(pyrrolidin-1-yl)-1,2,4-thiadiazol-3-yl)-1,9-diazaspiro[5.5]undecan-2-one] were 6.77 and 7.21.
On to `O=C1CCCC2(CCN(c3nccc(C(F)(F)F)n3)CC2)N1c1ccc(Cl)c(F)c1` [Example 3, 1-(4-chloro-3-fluorophenyl)-9-(4-(trifluoromethyl)pyrimidin-2-yl)-1,9-diazaspiro[5.5]undecan-2-one], for which the pIC50 was 6.74 in experiment [1] (setting [4]) and 8.10 in experiment [2] (setting [5]).
In the case of `O=C1CCCC2(CCN(c3noc(C45CC(C(F)(F)F)(C4)C5)n3)CC2)N1c1ccc(Cl)c(F)c1` [Example 7, 1-(4-chloro-3-fluorophenyl)-9-(5-(3-(trifluoromethyl)bicyclo[1.1.1]pentan-1-yl)-1,2,4-oxadiazol-3-yl)-1,9-diazaspiro[5.5]undecan-2-one], the pIC50 is 7.00 in experiment [1] (setting [4]) and 7.12 in experiment [2] (setting [5]).
As for `O=C1CCCC2(CCN(c3cc(OCC(F)(F)F)ccn3)CC2)N1c1ccc(Cl)c(F)c1` [Example 81, 1-(4-chloro-3-fluorophenyl)-9-(4-(2,2,2-trifluoroethoxy)pyridin-2-yl)-1,9-diazaspiro[5.5]undecan-2-one], the values for the negative logarithm of the IC50 (pIC50) in experiment [1] (setting [4]) and in experiment [2] (setting [5]) were 7.14 and 7.89, respectively.
Regarding `O=C1CCCC2(CCN(c3ncc4ccc(C(F)(F)F)cc4n3)CC2)N1c1ccc(Cl)c(F)c1` [Example 4, 1-(4-chloro-3-fluorophenyl)-9-(7-(trifluoromethyl)quinazolin-2-yl)-1,9-diazaspiro[5.5]undecan-2-one], the results for the pIC50 in experiment [1] (setting [4]) and in experiment [2] (setting [5]) were 7.30 and 8.15, respectively.
Taken in the same sequence, the figures for `O=C1CCCC2(CCN(c3nncc(C4CCCC4)n3)CC2)N1c1ccc(Cl)c(F)c1` [Example 20, 1-(4-chloro-3-fluorophenyl)-9-(5-cyclopentyl-1,2,4-triazin-3-yl)-1,9-diazaspiro[5.5]undecan-2-one] were 7.19 and 7.92.
The corresponding values for `O=C1CCCC2(CCN(c3ccn(-c4ccc(F)cc4)n3)CC2)N1c1ccc(Cl)c(F)c1` [Example 30, 1-(4-chloro-3-fluorophenyl)-9-(1-(4-fluorophenyl)-1H-pyrazol-3-yl)-1,9-diazaspiro[5.5]undecan-2-one] are 6.44 and 7.89.
For `O=C1CCCC2(CCN(c3ncnc(N4CCCC4)n3)CC2)N1c1ccc(Cl)c(F)c1` [Example 38, 1-(4-chloro-3-fluorophenyl)-9-(4-(pyrrolidin-1-yl)-1,3,5-triazin-2-yl)-1,9-diazaspiro[5.5]undecan-2-one], the pIC50 in experiment [1] (setting [4]) is 7.07; in experiment [2] (setting [5]), 8.10.
On to `O=C1CCCC2(CCN(c3nc(-c4ccc(F)cc4)n[nH]3)CC2)N1c1ccc(Cl)c(F)c1` [Example 26, 1-(4-chloro-3-fluorophenyl)-9-(3-(4-fluorophenyl)-1H-1,2,4-triazol-5-yl)-1,9-diazaspiro[5.5]undecan-2-one], for which the pIC50 in experiment [1] (setting [4]) was 6.96; in experiment [2] (setting [5]) it was 7.80.
For `O=C1CCCC2(CCN(c3cnn(-c4ccc(F)cc4)n3)CC2)N1c1ccc(Cl)c(F)c1` [Example 31, 1-(4-chloro-3-fluorophenyl)-9-(2-(4-fluorophenyl)-2H-1,2,3-triazol-4-yl)-1,9-diazaspiro[5.5]undecan-2-one], the pIC50 was 6.92 in experiment [1] (setting [4]) and 7.82 in experiment [2] (setting [5]).
For the compound `O=C1CCCC2(CCN(c3cc(-c4ccc(F)cc4)cc[n+]3[O-])CC2)N1c1ccc(Cl)c(F)c1` [Example 33, 2-(1-(4-chloro-3-fluorophenyl)-2-oxo-1,9-diazaspiro[5.5]undecan-9-yl)-4-(4-fluorophenyl)pyridine 1-oxide], the negative-log IC50 (pIC50) was 7.25 in experiment [1] (setting [4]) and 7.62 in experiment [2] (setting [5]).
As to `O=C1CCCC2(CCN(c3ncc(-c4ccc(F)cc4)o3)CC2)N1c1ccc(Cl)c(F)c1` [Example 21, 1-(4-chloro-3-fluorophenyl)-9-(5-(4-fluorophenyl)oxazol-2-yl)-1,9-diazaspiro[5.5]undecan-2-one], the values for the pIC50 in experiment [1] (setting [4]) and in experiment [2] (setting [5]) were 8.15 and 8.40, respectively.
On to `O=C1CCCC2(CCN(c3ncc(C4CCCCC4)o3)CC2)N1c1ccc(Cl)c(F)c1` [Example 27, 1-(4-chloro-3-fluorophenyl)-9-(5-cyclohexyloxazol-2-yl)-1,9-diazaspiro[5.5]undecan-2-one], for which the pIC50 in experiment [1] (setting [4]) is 7.23; in experiment [2] (setting [5]) it was 7.60.
